Source: patent US6737383B1, “Herbicidal oxadiazolidines” (priority 1999, dated 2004)

What was measured:
morningglory = test: Test B pre/postemergence morningglory; format: in vivo, Ipomoea hederacea
In short: (§1)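 Herbicidal effect was estimated by eye on a ten-point control scale after plants spent twelve to sixteen days in a greenhouse following soil or foliar treatment. Foliar sprays targeted plants at one to four leaves; all doses were formulated in a non-phytotoxic solvent with surfactant.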

cocklebur = test: Test B pre/postemergence cocklebur; format: in vivo, Xanthium strumarium
In short: as §1

rice = test: Test B flood test rice; format: in vivo, Oryza sativa
In short: (§2)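 Each value is a visual injury score relative to controls, with 10 meaning complete control and 0 no effect. Evaluation took place twelve to sixteen days after the 2-leaf-stage plants were treated and kept in the greenhouse.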

pigweed = test: Test B pre/postemergence pigweed; format: in vivo, Amaranthus retroflexus
In short: as §1

rape = test: Test B pre/postemergence rape; format: in vivo, Brassica napus
In short: as §1

purple nutsedge = test: Test B pre/postemergence purple nutsedge; format: in vivo, Cyperus rotundus
In short: as §1

bamyardgrass = test: Test B flood test barnyardgrass; format: in vivo, Echinochloa crus-galli
In short: as §2

giant foxtail = test: Test B pre/postemergence giant foxtail; format: in vivo, Setaria faberii
In short: as §1

wild oat = test: Test B pre/postemergence wild oat; format: in vivo, Avena fatua
In short: as §1

smallflower flatsedge = test: Test B flood test smallflower flatsedge; format: in vivo, Cyperus difformis
In short: as §2

crabgrass = test: Test B pre/postemergence crabgrass; format: in vivo, Digitaria sanguinalis
In short: as §1

sugar beet = test: Test B pre/postemergence sugar beet; format: in vivo, Beta vulgaris
In short: as §1

corn = test: Test B pre/postemergence corn; format: in vivo, Zea mays
In short: as §1

wheat = test: Test B pre/postemergence wheat; format: in vivo, Triticum aestivum
In short: as §1

duck salad = test: Test B flood test duck salad; format: in vivo, Heteranthera limosa
In short: as §2

surinam grass = test: Test B pre/postemergence surinam grass; format: in vivo, Brachiaria decumbens
In short: as §1

[1] = Preemergence, Rate 62 g/ha, scale of 0 to 10 where 0 is no effect and 10 is complete control
[2] = Preemergence, Rate 250 g/ha, scale of 0 to 10 where 0 is no effect and 10 is complete control
[3] = Preemergence, Rate 500 g/ha, scale of 0 to 10 where 0 is no effect and 10 is complete control
[4] = Rate 62 g/ha, Postemergence, scale 0 to 10 (0 no effect, 10 complete control)
[5] = Rate 125 g/ha, Postemergence, scale of 0 to 10 where 0 is no effect and 10 is complete control
[6] = Rate 250 g/ha, Postemergence, scale of 0 to 10 where 0 is no effect and 10 is complete control
[7] = Rate 500 g/ha, Postemergence, scale 0 to 10, 0 no effect, 10 complete control
[8] = Rate 62 g/ha, headed Pre-emergence (flood test species), scale 0 to 10 (0 no effect, 10 complete control)
[9] = Rate 125 g/ha, Pre-emergence, flood test species, scale 0 to 10 where 0 is no effect and 10 is complete control
[10] = Rate 250 g/ha, Pre-emergence, flood-test species, scale 0 to 10, 0 is no effect, 10 is complete control
[11] = Rate 500 g/ha, Pre-emergence, flood test species, scale 0 to 10 (0 no effect, 10 complete control)

CCN(C(=O)n1oc(=O)n(Cc2ccco2)c1=O)C1CCCCC1 [Compound 312]
0: Morningglory plant response rating (morningglory; [1]) | Morningglory plant response rating (0 to 10 scale) (morningglory; Preemergence, Rate 125 g/ha) | Morningglory plant response rating (morningglory; [2]) | Morningglory plant response rating (morningglory; [3]) | Morningglory plant response rating (morningglory; [4]) | Morningglory plant response rating (morningglory; [5]) | Plant response rating, Morningglory (morningglory; [6]) | Cocklebur plant response rating (cocklebur; [1]) | Cocklebur plant response rating (0 to 10 scale) (cocklebur; Preemergence, Rate 125 g/ha) | Cocklebur plant response rating (cocklebur; [2]) | Cocklebur plant response rating (cocklebur; [3]) | Cocklebur plant response rating (cocklebur; [4]) | Cocklebur plant response rating (cocklebur; [5]) | Plant response rating, Cocklebur (cocklebur; [6]) | Cocklebur plant response rating (cocklebur; [7]) | Rice plant response rating (rice; [8]) | Rice plant response rating (rice; [9]) | Rice plant response rating (rice; [10]) | Rice plant response rating (rice; [11]) | Redroot pigweed plant response rating (pigweed; [1]) | Redroot pigweed plant response rating (0 to 10 scale) (pigweed; Preemergence, Rate 125 g/ha) | Redroot pigweed plant response rating (pigweed; [2]) | Redroot pigweed plant response rating (pigweed; [3]) | Redroot pigweed plant response rating (pigweed; [4]) | Redroot pigweed plant response rating (pigweed; [5]) | Plant response rating, Redroot pigweed (pigweed; [6]) | Rape plant response rating (rape; [1]) | Rape plant response rating (0 to 10 scale) (rape; Preemergence, Rate 125 g/ha) | Rape plant response rating (rape; [2]) | Rape plant response rating (rape; [3]) | Rape plant response rating (rape; [4]) | Rape plant response rating (rape; [5]) | Plant response rating, Rape (rape; [6]) | Nutsedge plant response rating (purple nutsedge; [1]) | Nutsedge plant response rating (0 to 10 scale) (purple nutsedge; Preemergence, Rate 125 g/ha) | Nutsedge plant response rating (purple nutsedge; [2]) | Nutsedge plant response rating (purple nutsedge; [3]) | Nutsedge plant response rating (purple nutsedge; [4]) | Nutsedge plant response rating (purple nutsedge; [5]) | Plant response rating, Nutsedge (purple nutsedge; [6]) | Barnyardgrass plant response rating (bamyardgrass; [8]) | Barnyardgrass plant response rating (bamyardgrass; [9]) | Barnyardgrass plant response rating (bamyardgrass; [10]) | Barnyardgrass plant response rating (bamyardgrass; [11]) | Giant foxtail plant response rating (giant foxtail; [1]) | Giant foxtail plant response rating (0 to 10 scale) (giant foxtail; Preemergence, Rate 125 g/ha) | Giant foxtail plant response rating (giant foxtail; [2]) | Giant foxtail plant response rating (giant foxtail; [3]) | Giant foxtail plant response rating (giant foxtail; [4]) | Giant foxtail plant response rating (giant foxtail; [5]) | Plant response rating, Giant foxtail (giant foxtail; [6]) | Wild oats plant response rating (wild oat; [1]) | Wild oats plant response rating (0 to 10 scale) (wild oat; Preemergence, Rate 125 g/ha) | Wild oats plant response rating (wild oat; [2]) | Wild oats plant response rating (wild oat; [3]) | Wild oats plant response rating (wild oat; [4]) | Wild oats plant response rating (wild oat; [5]) | Plant response rating, Wild oats (wild oat; [6]) | S. Flatsedge plant response rating (smallflower flatsedge; [8]) | S. Flatsedge plant response rating (smallflower flatsedge; [9]) | S. Flatsedge plant response rating (smallflower flatsedge; [10]) | S. Flatsedge plant response rating (smallflower flatsedge; [11]) | Crabgrass plant response rating (crabgrass; [1]) | Crabgrass plant response rating (0 to 10 scale) (crabgrass; Preemergence, Rate 125 g/ha) | Crabgrass plant response rating (crabgrass; [2]) | Crabgrass plant response rating (crabgrass; [3]) | Crabgrass plant response rating (crabgrass; [4]) | Crabgrass plant response rating (crabgrass; [5]) | Plant response rating, Crabgrass (crabgrass; [6]) | Sugarbeets plant response rating (sugar beet; [1]) | Sugarbeets plant response rating (0 to 10 scale) (sugar beet; Preemergence, Rate 125 g/ha) | Sugarbeets plant response rating (sugar beet; [2]) | Sugarbeets plant response rating (sugar beet; [3]) | Sugarbeets plant response rating (sugar beet; [4]) | Sugarbeets plant response rating (sugar beet; [5]) | Plant response rating, Sugarbeets (sugar beet; [6]) | Corn plant response rating (corn; [1]) | Corn plant response rating (0 to 10 scale) (corn; Preemergence, Rate 125 g/ha) | Corn plant response rating (corn; [2]) | Corn plant response rating (corn; [3]) | Corn plant response rating (corn; [4]) | Corn plant response rating (corn; [5]) | Plant response rating, Corn (corn; [6]) | Corn plant response rating (corn; [7]) | Wheat plant response rating (wheat; [1]) | Wheat plant response rating (0 to 10 scale) (wheat; Preemergence, Rate 125 g/ha) | Wheat plant response rating (wheat; [2]) | Wheat plant response rating (wheat; [3]) | Wheat plant response rating (wheat; [4]) | Wheat plant response rating (wheat; [5]) | Plant response rating, Wheat (wheat; [6]) | Ducksalad plant response rating (duck salad; [8]) | Ducksalad plant response rating (duck salad; [9]) | Ducksalad plant response rating (duck salad; [10]) | Ducksalad plant response rating (duck salad; [11]) | B. signalgrass plant response rating (surinam grass; [1]) | B. signalgrass plant response rating (0 to 10 scale, 0 is no effect, 10 is complete control) (surinam grass; Preemergence, Rate 125 g/ha) | B. signalgrass plant response rating (surinam grass; [2]) | B. signalgrass plant response rating (surinam grass; [3]) | B. signalgrass plant response rating (surinam grass; [4]) | B. signalgrass plant response rating (surinam grass; [5]) | Plant response rating, B. signalgrass (surinam grass; [6]) | B. signalgrass plant response rating (surinam grass; [7])
